Data as given in patent US20250346579A1, “PYRIDAZINONE COMPOUND AND PREPARATION METHOD THEREFOR, PHARMACEUTICAL COMPOSITION THEREOF, AND APPLICATION THEREOF” (CHINA PHARMACEUTICAL UNIVERSITY, priority 2021, published 2025).
Read-outs that look alike come from different tables or passages of the source.

What was measured:
[1] = target: T1, PARP7 (Homo sapiens, UniProt Q7Z3E1); experiment: Inhibitory activity of compounds on PARP7 enzyme (PARP7 Chemiluminescent Assay Kit); assay type: biochemical
T1 construct: purchased BPS Bioscience
T1 sequence (Q7Z3E1 1-657): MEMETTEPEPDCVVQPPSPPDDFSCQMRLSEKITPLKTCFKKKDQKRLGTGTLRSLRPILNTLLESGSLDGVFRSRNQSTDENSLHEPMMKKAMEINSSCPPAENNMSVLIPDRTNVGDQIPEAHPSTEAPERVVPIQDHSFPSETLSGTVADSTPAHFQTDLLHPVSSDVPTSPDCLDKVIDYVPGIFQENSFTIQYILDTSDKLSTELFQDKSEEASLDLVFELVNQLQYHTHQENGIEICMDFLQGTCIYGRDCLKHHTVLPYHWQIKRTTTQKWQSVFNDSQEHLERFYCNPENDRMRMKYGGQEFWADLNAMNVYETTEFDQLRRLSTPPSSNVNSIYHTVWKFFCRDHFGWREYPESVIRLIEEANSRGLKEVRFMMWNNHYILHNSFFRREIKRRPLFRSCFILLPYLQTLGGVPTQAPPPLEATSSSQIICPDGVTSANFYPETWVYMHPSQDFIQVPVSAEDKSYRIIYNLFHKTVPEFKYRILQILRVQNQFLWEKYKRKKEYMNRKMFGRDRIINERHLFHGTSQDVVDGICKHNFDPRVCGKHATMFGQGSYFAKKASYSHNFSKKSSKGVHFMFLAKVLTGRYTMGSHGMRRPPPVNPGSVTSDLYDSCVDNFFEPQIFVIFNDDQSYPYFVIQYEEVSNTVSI
Description: Experimental materials: PARP7 Chemiluminescent Assay Kit, BPS Bioscience; DMSO, China National Pharmaceutical Group, Nivo, PerkinElmer.
(1) Preparation of Solutions and Buffers:
Preparation of 10×PBS: 720 mg of KH2PO4, 45 g of NaCl and 5.311 g of Na2HPO4·12H2O were weighed respectively and dissolved in 500 mL of deionized water, a system pH value was adjusted to 7.4, sterilization was performed at 121° C. for 30 min, and the system after cooling was placed at 4° C. for later use.
Preparation of 1×PBS: 10×PBS was diluted 10 times with deionized water, that is, 9 parts of deionized water was added to 1 part of 10×PBS for dilution.
Preparation of wash buffer: 1×PBS contained 0.05% Tween-20.
Preparation of 1×PARP buffer (prepared freshly before use): 10×PARP buffer was diluted 10 times with deionized water and placed on ice for later use.
(2) Preparation of Compound Working Solution Concentration:
According to test requirements, a compound to be tested is diluted with 100% DMSO to a desired concentration, and then diluted 10 times with 1×PARP buffer to prepare a 10× compound working solution.
a. 5× histone mixture was thawed on ice one day prior to the experiment;
b. preparation of 1× histone mixture: 1× histone mixture was prepared through the 5× histone mixture by using 1×PBS; and 25 μL of 1× histone mixture was taken from each well and transferred into a test well plate and incubated overnight at 4° C.;
c. 100 μL of Blocking buffer was taken from each well and added to the test well plate and incubated for 90 min at 25° C.;
d. after the incubation was completed, the liquid in the test well plate was spin-dried, and the test well plate was washed repeatedly for 3 times;
e. 2.5 μL of the compound working solution was taken from each well and added to the test well plate according to an experimental layout diagram; and 1×PARP buffer with a corresponding volume of 10% DMSO was added to positive control wells (Positive Control), and 1×PARP buffer of a corresponding volume was added to blank control wells (Blank);
f. after the enzyme was completely dissolved, an enzyme stock solution was diluted with 1×PARP buffer to 6 ng/μL;
g. 10 μL of enzyme solution was taken from each well and added to the test well plate, the blank control wells were added with the corresponding volume of 1×PARP buffer, and in which case, the enzyme amount was 60 ng per well. Note: this step needs to be performed on ice;
h. 12.5 μL of master mixture was added to each well of the test well plate (12.5 μL master mixture included 1.25 μL of 10×PARP buffer, 1.25 μL of Opti-PARP 10× Assay mixture and 10 μL of water); the test well plate was sealed and incubated at 25° C. for 60 min;
i. after the incubation was completed, the liquid in the test well plate was spin-dried, and the test well plate was washed repeatedly for 3 times;
j. Streptavidin-HRP in a kit was diluted 50 times with a Blocking buffer, 25 μL was taken from each well and added to the test well plate, and incubated at 25° C. for 30 min;
k. after the incubation was completed, the liquid in the test well plate was spin-dried, and the test well plate was washed repeatedly for 3 times;
l. ELISA ECL Substrate A and ELISA ECL Substrate B in the kit was mixed to obtain a mixed solution according to a ratio of 1:1, 50 μL of the mixed solution was added to each well of the test well plate, Nivo was used to perform Luminescence detection immediately, and a luminous value (RLU) was read; and
m. calculation of an enzyme rate: Enzyme Activity=(RLU(Sample)−RLU(Blank))/(RLU(Pos.Ctrl)−RLU(Blank))×100%; and enzyme inhibition rate=1−% Enzyme Activity, and specific results were shown in Table 1 below.

[2] = Pharmacokinetic study in SD rats; assay type: in vivo
Description: (§1) Experimental process: 12 male SD rats were selected, 6 of the rats were orally administrated (3 of them were administered with RBN-2397, and the remaining 3 were administered with I-A-1, at a dose of 10 mg/kg), 6 of the rats were administered intravenously (3 of them were administered with RBN-2397, and the remaining 3 were administered with I-A-1, at a dose of 1 mg/kg), blood samples were collected at 0 min, 2 min, 5 min, 10 min, 20 min, 30 min, 60 min, 2 h, 4 h, 6 h, and 8 h, respectively, and then centrifuged (at 3000 rpm for 5 min), a supernatant was collected and analyzed by LC-MS-MS, and results were analyzed by using WinNonlin Software.

[3] = Pharmacokinetic study in ICR mice; assay type: in vivo
Description: as §1, with “ICR mice” for “SD rats”

[4] = tested on: CT26 cells; experiment: In vivo pharmacodynamic study, CT26 subcutaneous tumors in BALB/c mice
Text: BALB/c mice were subcutaneously inoculated with CT26 cells in the right abdominal skin to develop tumors. Four days after tumor inoculation, 24 mice having a tumor size ranging from 55-75 mm^3 (with an average tumor size of 63 mm^3) were selected and randomly divided into 4 groups based on their tumor volumes, with 6 mice in each group. Drug administration was started on the day following random grouping (the day of random grouping was identified as Day 0), a carrier (0.5% of methyl cellulose+0.2% of Tween 80), Compound RBN-2397 (500 mg/kg, once a day, intragastric administration for 14 consecutive days), Compound I-A-1 (100 mg/kg, once a day, intragastric administration for 14 consecutive days), Compound I-A-1 (50 mg/kg, twice a day, intragastric administration for 14 consecutive days) were administered respectively, and the tumor size was measured three times per week during an administration period.

[5] = chemiluminescence, symbols defined as IC50 classes, read-out: 100 nM Inhibition Rate
[6] = summary of Table 1, read-out: enzyme inhibition IC50 values
[7] = male, rat, supernatant of centrifuged blood, IV 1 mg/kg
[8] = male, rat, supernatant of centrifuged blood, PO 10 mg/kg
[9] = male, mouse, supernatant of centrifuged blood, IV 1 mg/kg
[10] = male, mouse, supernatant of centrifuged blood, PO 10 mg/kg

## C[C@@H](CN1CC(C(=O)N(C)C2CN(c3ncc(C(F)(F)F)cn3)C2)C1)Nc1cn[nH]c(=O)c1C(F)(F)F [I-A-16, (S)-N-methyl-1-(2-((6-oxo-5-(trifluoromethyl)-1,6-dihydropyridazin-4-yl)amino)propyl)-N-(1-(5-(trifluoromethyl)pyrimidin-2-yl)azetidin-3-yl)azetidine-3-carboxamide]
[1]; [5]
  IC50: < 100 nM

## O=C(C1CN(CCNc2cn[nH]c(=O)c2C(F)(F)F)C1)N1CCN(c2ncc(C(F)(F)F)cn2)CC1 [I-A-20, 4-(trifluoromethyl)-5-((2-(3-(4-(5-(trifluoromethyl)pyrimidin-2-yl)piperazine-1-carbonyl)azetidin-1-yl)ethyl)amino)pyridazin-3(2H)-one]
[1]; [5]
  IC50: < 100 nM
[1]; [6]
  IC50: < 100 nM

## C[C@@H](CN1CC(C(=O)N2CCN(c3ncc(C(F)(F)F)cn3)CC2)C1)Nc1cn[nH]c(=O)c1Br [I-A-23, (S)-4-bromo-5-((1-(3-(4-(5-(trifluoromethyl)pyrimidin-2-yl)piperazine-1-carbonyl)azetidin-1-yl)propan-2-yl)amino)pyridazin-3(2H)-one]
[1]; [5]
  IC50: 100 to 500 nM

## C[C@@H](CN1CC(C(=O)N2CCN(c3ncc(S(C)(=O)=O)cn3)CC2)C1)Nc1cn[nH]c(=O)c1C(F)(F)F [I-A-4, (S)-5-((1-(3-(4-(5-(methylsulfonyl)pyrimidin-2-yl)piperazine-1-carbonyl)azetidin-1-yl)propan-2-yl)amino)-4-(trifluoromethyl)pyridazin-3(2H)-one]
[1]; [5]
  IC50: < 100 nM

## C[C@@H](CN1CC(C(=O)N2CCN(c3ncc(C(F)(F)F)cn3)CC2)C1)Nc1cn[nH]c(=O)c1Cl [I-A-22, (S)-4-chloro-5-((1-(3-(4-(5-(trifluoromethyl)pyrimidin-2-yl)piperazine-1-carbonyl)azetidin-1-yl)propan-2-yl)amino)pyridazin-3(2H)-one]
[1]; [5]
  IC50: 100 to 500 nM

## C[C@@H](CN1CC(C(=O)N2CCN(c3ncc(C(F)(F)F)cn3)CC2)C1)Nc1cn[nH]c(=O)c1C(F)(F)F [I-A-1, (S)-4-(trifluoromethyl)-5-((1-(3-(4-(5-(trifluoromethyl)pyrimidin-2-yl)piperazine-1-carbonyl)azetidin-1-yl)propan-2-yl)amino)pyridazin-3(2H)-one]
[1]; [5]
  IC50: < 100 nM
[1]; [6]
  IC50: < 100 nM
[2]; PO 10 mg/kg
  CL: 62.9522 mL/min/kg
  F: 46.8%
[2]; in words
  pharmacokinetic properties: good pharmacokinetic properties
[2]; [7]
  AUC: 548 ng·h/mL
  Cmax: 333 ng/mL
  clearance: 30.4 mL/min/kg
  half-life: 103 min
[2]; [8]
  AUC: 2560 ng·h/mL
  Cmax: 564 ng/mL
  half-life: 154 min
[3]; PO 10 mg/kg, 10 mg/kg
  F: 95.80%
[3]; in words
  pharmacokinetic properties: good pharmacokinetic properties
[3]; [9]
  AUC: 591 ng·h/mL
  Cmax: 419 ng/mL
  clearance: 29 mL/min/kg
  half-life: 86.4 min
[3]; [10]
  AUC: 5660 ng·h/mL
  Cmax: 2300 ng/mL
  half-life: 104 min
[4]; 100 mg/kg once a day or 50 mg/kg twice a day, intragastric, 14 days, FIG. 2
  anti-tumor activity: significant anti-tumor activity
[4]; I-A-1 100 mg/kg/day vs RBN-2397 500 mg/kg once a day
  anti-tumor effect compared with the positive drug RBN-2397: better anti-tumor effect at a lower dose

## C[C@@H](CCN1CC(C(=O)N2CCN(c3ncc(C(F)(F)F)cn3)CC2)C1)Nc1cn[nH]c(=O)c1C(F)(F)F [I-A-21, (S)-4-(trifluoromethyl)-5-((4-(3-(4-(5-(trifluoromethyl)pyrimidin-2-yl)piperazine-1-carbonyl)azetidin-1-yl)butan-2-yl)amino)pyridazin-3(2H)-one]
[1]; [5]
  IC50: 100 to 500 nM

## C[C@@H](CN1CC(C(=O)N2CCN(c3ccc(C(F)(F)F)cc3)CC2)C1)Nc1cn[nH]c(=O)c1C(F)(F)F [I-A-11]
[1]; [5]
  IC50: 100 to 500 nM

## O=C(Nc1cccc(CNc2cn[nH]c(=O)c2C(F)(F)F)c1)N1CCN(c2ncc(C(F)(F)F)cn2)CC1 [I-E-7, N-(3-(((6-oxo-5-(trifluoromethyl)-1,6-dihydropyridazin-4-yl)amino)methyl)phenyl)-4-(5-(trifluoromethyl)pyrimidin-2-yl)piperazine-1-carboxamide]
[1]; [5]
  IC50: < 100 nM
[1]; [6]
  IC50: < 100 nM

## C[C@@H](Cn1ccc(C(=O)N2CCN(c3ncc(C(F)(F)F)cn3)CC2)c1)Nc1cn[nH]c(=O)c1C(F)(F)F [I-C-1, (S)-4-(trifluoromethyl)-5-((1-(3-(4-(5-(trifluoromethyl)pyrimidin-2-yl)piperazine-1-carbonyl)-1H-pyrrol-1-yl)propan-2-yl)amino)pyridazin-3(2H)-one]
[1]; [5]
  IC50: < 100 nM
[1]; [6]
  IC50: < 100 nM

## C[C@@H](CN1CC(C(=O)N2CCN(c3nccc(C(F)(F)F)n3)CC2)C1)Nc1cn[nH]c(=O)c1C(F)(F)F [I-A-13, (S)-4-(trifluoromethyl)-5-((1-(3-(4-(4-(trifluoromethyl)pyrimidin-2-yl)piperazine-1-carbonyl)azetidin-1-yl)propan-2-yl)amino)pyridazin-3(2H)-one]
[1]; [5]
  IC50: < 100 nM
[1]; [6]
  IC50: < 100 nM
